Measurements taken from PMC3914206.

Columns and labels:
Type in all cases: binding
Design in all cases: KINOMEscan: ABL1(F317L)-phosphorylated / KINOMEscan: ABL1(H396P)-nonphosphorylated / KINOMEscan: ABL1(H396P)-phosphorylated / KINOMEscan: ABL1(M351T)-phosphorylated / KINOMEscan: ABL1(T315I)-phosphorylated / KINOMEscan: ABL1-nonphosphorylated / KINOMEscan: ABL1-phosphorylated / KINOMEscan: ACVR2A / KINOMEscan: ACVR2B / KINOMEscan: ADCK3 / KINOMEscan: ADCK4 / KINOMEscan: AKT1 / KINOMEscan: AKT3 / KINOMEscan: ALK / KINOMEscan: ARK5 / KINOMEscan: AURKA / KINOMEscan: AURKC / KINOMEscan: BIKE / KINOMEscan: BMPR1A / KINOMEscan: BMPR1B / KINOMEscan: BMX / KINOMEscan: BRK / KINOMEscan: BRSK1 / KINOMEscan: BRSK2 / KINOMEscan: CAMK1 / KINOMEscan: CAMK1D / KINOMEscan: CAMK1G / KINOMEscan: CAMK2A / KINOMEscan: CAMK2B / KINOMEscan: AAK1 / KINOMEscan: CAMK2D / KINOMEscan: CAMK2G / KINOMEscan: ABL1(F317I)-nonphosphorylated / KINOMEscan: ABL1(F317I)-phosphorylated / KINOMEscan: ABL1(F317L)-nonphosphorylated: unit: % Ctrl
Conditions in all cases: Compound Concentration 10 µM
panel of 442 kinases [1] = target: T1, panel of 442 kinases (Homo sapiens, UniProt O43353)
T1 construct: purchased KINOMEscan
From the text: (§1) We assessed the selectivity of members of this scaffold using the KINOMEscan methodology across a near comprehensive panel of 442 kinases [[18,27]].

panel of 442 kinases [2] = target: T2, panel of 442 kinases (Homo sapiens, UniProt P49674)
T2 construct: purchased KINOMEscan
From the text: as §1

panel of 442 kinases [3] = target: T3, panel of 442 kinases (Homo sapiens, UniProt Q13705)
T3 construct: purchased KINOMEscan
From the text: as §1

panel of 442 kinases [4] = target: T4, panel of 442 kinases (Homo sapiens, UniProt Q15303)
T4 construct: purchased KINOMEscan
From the text: as §1

T3 sequence (Q13705 19-512): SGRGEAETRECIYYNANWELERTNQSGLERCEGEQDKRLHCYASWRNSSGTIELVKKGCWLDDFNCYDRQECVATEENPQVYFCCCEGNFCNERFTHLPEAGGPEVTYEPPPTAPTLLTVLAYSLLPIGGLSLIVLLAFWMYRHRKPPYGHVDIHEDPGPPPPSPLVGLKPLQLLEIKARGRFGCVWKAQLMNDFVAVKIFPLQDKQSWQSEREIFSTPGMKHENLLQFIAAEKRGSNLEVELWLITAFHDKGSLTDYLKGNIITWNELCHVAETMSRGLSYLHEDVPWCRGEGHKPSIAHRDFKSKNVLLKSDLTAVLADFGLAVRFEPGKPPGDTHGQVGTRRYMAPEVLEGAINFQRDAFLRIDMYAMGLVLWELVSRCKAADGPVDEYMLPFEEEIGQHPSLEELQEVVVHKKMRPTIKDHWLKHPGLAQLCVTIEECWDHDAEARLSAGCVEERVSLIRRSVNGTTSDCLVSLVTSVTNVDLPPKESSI
T4 sequence (Q15303 26-1308): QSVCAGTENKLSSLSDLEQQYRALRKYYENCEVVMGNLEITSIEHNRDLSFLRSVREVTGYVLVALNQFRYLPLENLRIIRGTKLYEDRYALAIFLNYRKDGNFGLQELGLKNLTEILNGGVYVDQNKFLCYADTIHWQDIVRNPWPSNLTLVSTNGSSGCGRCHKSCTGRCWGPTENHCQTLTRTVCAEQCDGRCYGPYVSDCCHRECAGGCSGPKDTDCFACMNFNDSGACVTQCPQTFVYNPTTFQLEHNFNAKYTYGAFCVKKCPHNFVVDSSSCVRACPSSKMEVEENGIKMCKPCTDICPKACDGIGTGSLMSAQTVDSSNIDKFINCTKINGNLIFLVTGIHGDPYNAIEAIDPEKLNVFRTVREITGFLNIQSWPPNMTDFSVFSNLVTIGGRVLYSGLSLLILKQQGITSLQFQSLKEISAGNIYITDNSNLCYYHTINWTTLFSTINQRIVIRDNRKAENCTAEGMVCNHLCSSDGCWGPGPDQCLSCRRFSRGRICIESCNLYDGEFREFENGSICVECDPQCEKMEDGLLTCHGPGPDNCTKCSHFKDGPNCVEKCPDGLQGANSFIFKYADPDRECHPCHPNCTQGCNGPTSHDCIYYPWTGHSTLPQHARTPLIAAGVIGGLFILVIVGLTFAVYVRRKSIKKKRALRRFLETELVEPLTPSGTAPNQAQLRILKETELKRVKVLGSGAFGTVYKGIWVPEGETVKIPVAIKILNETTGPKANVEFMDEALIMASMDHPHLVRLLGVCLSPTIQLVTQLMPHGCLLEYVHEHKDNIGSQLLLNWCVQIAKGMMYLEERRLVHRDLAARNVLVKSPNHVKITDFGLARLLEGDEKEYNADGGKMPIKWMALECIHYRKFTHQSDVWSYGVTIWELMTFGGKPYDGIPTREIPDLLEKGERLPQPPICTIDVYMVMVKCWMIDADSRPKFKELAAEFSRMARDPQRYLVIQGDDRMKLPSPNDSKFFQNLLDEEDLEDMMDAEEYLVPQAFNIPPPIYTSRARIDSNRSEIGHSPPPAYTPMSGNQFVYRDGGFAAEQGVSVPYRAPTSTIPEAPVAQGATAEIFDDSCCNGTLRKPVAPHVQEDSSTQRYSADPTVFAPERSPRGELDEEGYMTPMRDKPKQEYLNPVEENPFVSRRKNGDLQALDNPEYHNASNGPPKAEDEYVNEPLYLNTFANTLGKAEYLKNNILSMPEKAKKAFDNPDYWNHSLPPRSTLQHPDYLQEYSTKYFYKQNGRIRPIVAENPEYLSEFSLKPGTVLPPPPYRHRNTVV
T2 sequence (P49674 whole entry): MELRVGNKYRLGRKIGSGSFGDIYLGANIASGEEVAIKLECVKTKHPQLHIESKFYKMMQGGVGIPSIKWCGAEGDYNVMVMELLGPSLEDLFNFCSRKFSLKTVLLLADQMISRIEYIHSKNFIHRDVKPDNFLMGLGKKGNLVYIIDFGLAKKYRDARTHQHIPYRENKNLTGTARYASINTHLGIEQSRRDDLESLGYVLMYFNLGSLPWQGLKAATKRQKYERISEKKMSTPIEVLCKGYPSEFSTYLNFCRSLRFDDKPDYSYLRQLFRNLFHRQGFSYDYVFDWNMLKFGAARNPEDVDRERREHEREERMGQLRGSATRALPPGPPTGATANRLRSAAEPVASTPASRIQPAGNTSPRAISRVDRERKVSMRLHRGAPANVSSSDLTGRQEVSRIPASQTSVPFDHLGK
T1 sequence (O43353 whole entry): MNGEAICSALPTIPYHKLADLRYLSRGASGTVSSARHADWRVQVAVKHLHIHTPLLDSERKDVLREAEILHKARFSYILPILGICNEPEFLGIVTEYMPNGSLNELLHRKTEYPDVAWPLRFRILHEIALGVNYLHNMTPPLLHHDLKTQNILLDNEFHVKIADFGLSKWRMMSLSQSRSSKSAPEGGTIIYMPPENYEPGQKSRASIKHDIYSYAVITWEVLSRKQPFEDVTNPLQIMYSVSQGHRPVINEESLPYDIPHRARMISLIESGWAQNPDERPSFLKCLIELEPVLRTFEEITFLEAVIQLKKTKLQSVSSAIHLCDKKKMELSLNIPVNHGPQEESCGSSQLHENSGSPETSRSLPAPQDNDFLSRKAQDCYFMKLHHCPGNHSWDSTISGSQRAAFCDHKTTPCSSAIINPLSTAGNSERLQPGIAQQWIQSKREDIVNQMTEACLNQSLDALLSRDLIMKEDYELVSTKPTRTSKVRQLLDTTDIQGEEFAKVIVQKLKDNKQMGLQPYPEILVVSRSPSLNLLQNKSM

| SMILES | KINOMEscan: RIPK2 (panel of 442 kinases [1]) | KINOMEscan: CSNK1E (panel of 442 kinases [2]) | KINOMEscan: ACVR2B (panel of 442 kinases [3]) | KINOMEscan: ERBB4 (panel of 442 kinases [4]) |
| --- | --- | --- | --- | --- |
| COc1cc(C(=O)N2CCC(N3CCN(C)CC3)CC2)ccc1Nc1ncc2c(n1)N(C)c1ccccc1C(=O)N2C [15 (LRRK2-IN-1)] | 100 | 95 | 100 | 100 |
| CCOc1cc(C(=O)N2CCC(N3CCN(C)CC3)CC2)ccc1Nc1ncc2c(n1)N(C1CCCC1)c1ccccc1C(=O)N2C [Compound 26] | 100 | 100 | 100 | 100 |
| COc1cc(C(=O)N2CCC(N3CCN(C)CC3)CC2)ccc1Nc1ncc2c(n1)N1CCc3cccc(c31)C(=O)N2C [Compound 24] | 95 | 81 | – | – |
| COc1cc(C(=O)N2CCC(N3CCN(C)CC3)CC2)ccc1Nc1ncc2c(n1)N(C1CCCC1)c1ccccc1C(=O)N2C [Compound 25, 11-cyclopentyl-2-((2-methoxy-4-(4-(4-methylpiperazin-1-yl)piperidine-1-carbonyl)phenyl)amino)-5-methyl-5H-benzo[e]pyrimido[5,4-b][1,4]diazepin-6(11H)-one] | 87 | 100 | 91 | 100 |
